One experiment has as its target T1, hPIF1HD V258A (Homo sapiens, UniProt Q9H611, V258A).
T1 construct: The human PIF1 helicase domain and mutants (hPIF1HD, residues 206–620); hexa-histidine tag (N, cleaved yes); made in house; host or cells: ArcticExpress BL21(DE3) E. coli (Agilent Technologies)
T1 sequence (Q9H611 206-620 V258A): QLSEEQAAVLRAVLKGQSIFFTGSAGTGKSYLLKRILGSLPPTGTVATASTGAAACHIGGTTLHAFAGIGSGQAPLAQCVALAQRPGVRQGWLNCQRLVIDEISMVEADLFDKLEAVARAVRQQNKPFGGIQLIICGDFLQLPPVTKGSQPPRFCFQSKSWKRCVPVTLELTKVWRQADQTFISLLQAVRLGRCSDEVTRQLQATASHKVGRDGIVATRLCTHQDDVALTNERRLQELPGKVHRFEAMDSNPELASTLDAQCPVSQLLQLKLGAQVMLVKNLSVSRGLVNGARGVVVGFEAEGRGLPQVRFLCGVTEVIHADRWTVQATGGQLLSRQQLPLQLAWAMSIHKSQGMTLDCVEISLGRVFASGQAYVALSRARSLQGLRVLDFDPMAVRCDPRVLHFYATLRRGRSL
The experiment is described as follows: ssDNA d(T)55 binding assay (EMSA), hPIF1HD V258A variant. As to conditions: 0.25 nM d(T)55, 2 nM protein, 5 mM AMP-PNP, 0.0078–2 mM compound; read-out: IC50 for inhibition of ssDNA binding, V258A. The procedure: (§1) DNA binding of hPIF1HD was assayed using a ^32P-5′ end-labelled oligo d(T)55 substrate (0.25 nM), under the same buffer conditions described for helicase assays, but with AMP-PNP instead of ATP. Reaction products were resolved on 5% poly-acrylamide gels (29:1 acrylamide:bis-acrylamide) using 0.25× TBE running buffer ([19],[28]). Gels were processed and reaction products quantified by phosphorimaging and IC50 values determined as described above.
(§2) In hPIF1HD/AMP-PNP/1 there are no direct hydrogen bonds between amino acid side chains and 1, however, Val 258 from domain 1A is making van der Waals interaction (<3.8 Å) with the amide group at one end of the molecule (Figure 1). From the structural data, we reasoned that substitution of the Val 258 with alanine (V258A) would increase the size of the binding pocket and its accessibility to ligand, while substitution with leucine (V258L) would decrease pocket size and possibly instigate a clash with Lys 556, disrupting interactions with compound 1 or derivatives. Accordingly, we purified hPIF1HD V258A and V258L variant forms and analysed ssDNA d(T)55 binding in the presence of SMIs, using EMSA as above.
(§3) Supplementary Figure 12. hPIF1HD variants V258A and V258L ssDNA binding IC50 determination by EMSA with selected SMIs. All binding reactions were assembled under helicase reaction conditions but with 0.25 nM radiolabelled oligo d(T)55, and 5 mM AMP-PNP. (A) DNA binding activity of wild type and mutant proteins was assessed by EMSA without inhibitors. […] 1D: Wild type (WT), V258A and V258L, not determined. 2: WT, 224 ± […]; V258A, 103 ± 31 µM; V258L, 304 ± 88 µM. 5: WT, 198 ± 54 µM; V258A, 79.2 ± 27 µM; V258L, 414 ± 45 µM. 6: WT, 722 ± 194 µM; V258A, 295 ± 116 µM; V258L, 1010 ± 282 µM. 10: WT, 224 ±59 µM; V258A, 152 ± 42 µM; V258L, 378 ± 99 µM. 11: WT, 284 ± 110 µM; V258A, 151 ± 51 µM; V258L, 551 ± 215 µM.

The next experiment deals with T2, hPIF1HD V258L (Homo sapiens, UniProt Q9H611, V258L).
T2 construct: The human PIF1 helicase domain and mutants (hPIF1HD, residues 206–620); hexa-histidine tag (N, cleaved yes); made in house; host or cells: ArcticExpress BL21(DE3) E. coli (Agilent Technologies)
T2 sequence (Q9H611 206-620 V258L): T1 sequence (Q9H611 206-620 V258A) with A53L
The experiment is described as follows: ssDNA d(T)55 binding assay (EMSA), hPIF1HD V258L variant. The note with it: 0.25 nM d(T)55, 2 nM protein, 5 mM AMP-PNP, 0.0078–2 mM compound; read-out: IC50 for inhibition of ssDNA binding, V258L. The protocol: as §1, §2, §3

Positions count from the first letter of the chain named.

As usually defined, the IC50 is the concentration needed to halve the response being measured. Consider `CC(=O)c1ccc(-c2csc(N)n2)cc1` [Compound 2], for which the IC50 at hPIF1HD V258A was 103 ± 31 µM; at hPIF1HD V258L, 304 ± 88 µM.

On to `N#Cc1ccc(-c2csc(N)n2)cc1` [Compound 5], for which the results for the IC50 on hPIF1HD V258A and on hPIF1HD V258L were 79.2 ± 27 µM and 414 ± 45 µM, respectively.

As to `Nc1nc(-c2ccc(C(=O)c3ccccc3)cc2)cs1` [Compound 6], the IC50 worked out at 295 ± 116 µM at hPIF1HD V258A and 1010 ± 282 µM at hPIF1HD V258L.

Take `CC(=O)Nc1ccc(-c2csc(N)n2)cc1-c1ccc(C)cc1` [Compound 10]: the values for the IC50 at hPIF1HD V258A and at hPIF1HD V258L were 152 ± 42 µM and 378 ± 99 µM, respectively.

As to `CC(=O)Nc1ccc(-c2csc(N)n2)cc1C1=CCNCC1` [Compound 11], the half-maximal inhibitory concentration (IC50) on hPIF1HD V258A came out at 151 ± 51 µM; at hPIF1HD V258L, 551 ± 215 µM.

These data come from publication PMC11551755, “Structure-based discovery of first inhibitors targeting the helicase activity of human PIF1” (Nucleic Acids Research, 2024).
